The values that follow come from ChEMBL document CHEMBL4118074, “Design, synthesis and structure-activity relationship studies of a novel focused library of 2,3,4-substituted oxazolidines with antiproliferative activity against cancer cell lines” (Eur J Med Chem, 2017).

Each structure is given as a SMILES string.

For one assay, the system named is Jurkat. The assay can be described thus: Antiproliferative activity against human Jurkat T cells after 48 hrs by MTT assay. The class given is functional, cell-based. In general terms: Tetrazolium dyes change colour on reduction, which living cells bring about.
For another assay, the system named is HL-60. Nature of the assay: Antiproliferative activity against human HL60 cells after 48 hrs by MTT assay. The format is functional, cell-based. The settings on record: HL-60, 48 h.
The test system of the next assay is HCT-116. The assay can be described thus: Antiproliferative activity against human HCT116 cells after 48 hrs by MTT assay. As to conditions: HCT-116, 48 h. The class given is functional, cell-based.
For another assay, the system named is MDA-MB-231. The assay can be described thus: Antiproliferative activity against human MDA-MB-231 cells after 48 hrs by MTT assay. The format is functional, cell-based. As to conditions: MDA-MB-231, 48 h.
A further assay relates to MCF7. Nature of the assay: Antiproliferative activity against human MCF7 cells after 48 hrs by MTT assay. The class given is functional, cell-based. As to conditions: MCF7, 48 h.
A further assay concerns Vero. The assay can be described thus: Cytotoxicity against African green monkey Vero cells after 48 hrs by MTT assay. As to conditions: Chlorocebus sabaeus. The format is cell-based.

Regarding `CC(C)(C)C(=O)N1[C@@H](COc2ccc([N+](=O)[O-])cc2)COC1(C)C`, the IC50 (as a rule, the concentration needed to halve the response being measured) is greater than 50 µM with Jurkat; greater than 50 µM with HL-60; greater than 50 µM with HCT-116; greater than 50 µM in the assay with MDA-MB-231; greater than 50 µM with MCF7; greater than 100 µM with Vero.

On to `CN1CCN(C(=O)c2ccc(OC[C@H]3COC(C)(C)N3C(=O)OC(C)(C)C)cc2)CC1`, for which the IC50 with Jurkat, in the assay on HL-60, with HCT-116, in the assay with MDA-MB-231 and in the assay on MCF7 was greater than 50 µM in each case.

For `CC(C)(C)OC(=O)N[C@H](CO)COc1ccc([N+](=O)[O-])cc1`, the IC50 in the assay with HL-60 is greater than 50 µM; with HCT-116, greater than 50 µM; with MDA-MB-231 it was greater than 50 µM; in the assay with MCF7 it was greater than 50 µM; in the assay on Vero, greater than 100 µM.

For `CC(C)(C)CC(=O)N1[C@@H](COc2ccc([N+](=O)[O-])cc2)COC1(C)C`, the IC50 in the assay with Jurkat was greater than 50 µM; in the assay with HL-60 it was greater than 50 µM; in the assay on HCT-116, greater than 50 µM; in the assay with MDA-MB-231 it was greater than 50 µM; in the assay on MCF7, greater than 50 µM; with Vero, greater than 100 µM.
